Test results reported in patent publication US20160158309A1, “EXERCISE FUNCTION ENHANCER” (KOHJIN LIFE SCIENCES CO., LTD., priority 2014, published 2016).
“Also recorded” adds a separate entry of the source.

What was measured:
[1] = Muscle tissue pH after treadmill exercise in mice; assay type: in vivo, ICR mice; settings: exercise group vs control exercise group; oral once a day for two weeks, 2.0% solution 5 μl/g body weight; treadmill 30 minutes at 25 m/min; tibialis anterior and gastrocnemis muscle
Description: After anesthetic, intermuscular pH of the tibialis anterior muscle and the gastrocnemis muscle was measured using a micro-glass electrode (CMN-141, Chemical Instruments).
The experiment was conducted using 7-week-old male ICR mice (Shimizu Laboratory Supplies). After one week of preliminary care, the mice were separated into two groups based on body weight: a glutathione group (n=21) and a control group (n=21). Glutathione (KOHJIN Life Sciences Co., Ltd.) was prepared in a 2.0% solution and was administered orally once a day for two weeks to the glutathione group at a dose of 5 μl/g of body weight. The same amount of distilled water was administered orally to the control group for the same period of time. […] On the final day, the groups were further divided into a control sedentary group (n=13), a control exercise group (n=8), a glutathione sedentary group (n=13), and a glutathione exercise group (n=8). The exercise groups were given the task of running on a treadmill, after which all groups were dissected.
The exercise task employed a treadmill (MK680, Muromachi Kikai). On the day of the exercise task, the sedentary groups were dissected without performing the exercise task, while the exercise groups were given the task of running on a treadmill for 30 minutes at a speed of 25 m/min, then were dissected immediately after completing the exercise task.
All of the data was plotted with the mean value±standard error. After performing a two-way analysis of variance in comparing the four groups, a multiple comparison test (Bonferroni) was performed. Student's t-distribution test was performed when comparing two groups. Level of significance was defined at 5%.

PGC-1α = PGC-1α amount in soleus muscle by western blot; assay type: in vivo, ICR mice; settings: treated vs control groups; oral once a day for two weeks, 2.0% solution 5 μl/g body weight; sedentary group soleus muscle
Description: An amount of PGC-1α in the muscles was measured using a western blot test. Soleus muscle of a sedentary group was homogenized and protein concentration was measured using the BCA method (BCA™ Protein Assay Kit, Thermo [sequence]). The prepared protein sample was poured into 10% gel (Wako), was separated by electrophoresis, and was transferred to a membrane using a transfer device (iBlot, Invitrogen). After 30 minutes of blocking (EzBlokChemi, ATTO CORPORATION), the sample was cleaned three times for five minutes each in Tris buffered saline-(BIO-RAD Laboratories) Tween 20 (Wako) (TBST), and was reacted with a primary antibody using an anti-PGC-1α antibody (CHEMICON International) for 60 minutes at room temperature. The sample was then cleaned three times for five minutes each in TBST and was reacted with a secondary antibody using anti-rabbit antibody (GE Healthcare) for 60 minutes at room temperature. The sample was then cleaned three times for five minutes each in TBST and was reacted with a coloring agent (ECL plus, GE Healthcare) for four minutes. Using an image analysis device (ImageQuant LAS 4000, GE Healthcare), bands were detected and converted to numerical values. Thereafter, a relative ratio with respect to a control set was calculated.
The experiment was conducted using 7-week-old male ICR mice (Shimizu Laboratory Supplies). After one week of preliminary care, the mice were separated into two groups based on body weight: a glutathione group (n=21) and a control group (n=21). […] The same amount of distilled water was administered orally to the control group for the same period of time. A twelve-hour light/dark cycle was maintained in the enclosure and the mice were able to freely take food and water from a plastic gauge. On the final day, the groups were further divided into a control sedentary group (n=13), a control exercise group (n=8), a glutathione sedentary group (n=13), and a glutathione exercise group (n=8). The exercise groups were given the task of running on a treadmill, after which all groups were dissected. […]

SMILES: O=C1O[C@H]([C@@H](O)CO)C(O)=C1O [vitamin C]
- Muscle tissue pH [1]: not observed
- PGC-1α expression in the soleus muscles (relative ratio to control) (PGC-1α): not observed

SMILES: N[C@@H](CCC(=O)N[C@@H](CS)C(=O)NCC(=O)O)C(=O)O [glutathione, γ-L-Glu-L-Cys-Gly]
- Muscle tissue pH [1]: significantly higher value; also recorded: no reduction in muscle tissue pH was observed
- PGC-1α expression in the soleus muscles (relative ratio to control) (PGC-1α): significantly higher value; also recorded: an increase in PGC-1α expression
